This is an account of results in US20200323802A1, “SUPPORTING IMMUNOMODULATORY AGENT” (Flexopharm Brain GMBH & Go. KG, priority 2015, published 2020).

“Also recorded” adds a separate entry of the source.

One test has as its system Treg cells. The test can be described thus: Treg cells in MS patients before and after 14 days of treatment with sodium propionate plus MS drug. The class given is in vivo, human. As to conditions: pooled comparison group, patient-specific dose of the MS drug together with sodium propionate 2×0.5 g daily, before vs after 14 days, FIG. 6. The source says: The disproportionate increase in the amount of Treg cells signifies a corresponding reduction in the autoimmune response.

Test [1] has as its system experimental autoimmune encephalomyelitis (EAE). Kind of test: EAE mouse model, daily clinical assessment on 5-point scale (SEM). In kind it is in vivo. On the procedure:
(§1) Mice kept under standardized conditions were fed on a normal diet enriched with long-chain fatty acids (30.9% lauric acid) and with 200 μl of propionate daily administered orally. The propionate was given either at the time of disease induction (DI) or at the onset of the disease (OD).
(§2) For the induction of EAE the mice were anesthetized and administered two subcutaneous injections of a 50 μl emulsion applied to the left and right tail basis and comprising a total of 200 μg MOG35-55 (myelin oligodendrocyte glycoprotein) and 200 μg Freund's adjuvant (CFA) with 4 mg/ml of M. tuberculosis. Pertussis toxin ([…]) was given intraperitoneally on day 0 and day 2 after the induction. The clinical assessment took place on a daily basis using a 5-point scale (SEM). The assessment was as follows:
0=normal 1=Tail paralysis impairing raising 2=Gait ataxia 3=Paraparesis of hind legs
Mice showing SEM 4 or 5 were excluded.

Test [2] shares this test system. The test can be described thus: EAE mouse model: relative axonal density, demyelination of the white matter, CD3+ cells. In kind it is in vivo. As to conditions: propionic acid (DI or OD), FIG. 3. Here is the method: FIG. 3: is a graph showing the effect of propionic acid diet initiated at the time of disease induction (DI) or at the time of onset of symptoms (OD) compared to a diet control group on relative axonal density, demyelination in the white matter, and CD3+ cells in the mouse EAE model.
as §1, §2
The influence of the propionic acid on the relative axonal density, the demyelination of the white matter, and the number of CD3+-cells is shown in FIG. 3.

Another test concerns CD4+CD25+ Foxp3+ Treg. The test can be described thus: Levels of CD4+CD25+ Foxp3 regulatory T cells in mouse EAE model. The class given is in vivo. Here is the method:
FIG. 4: is a graph showing the effect of propionic acid diet initiated at the time of disease induction (DI) compared to a control group on levels of CD4+CD25+ Foxp3 cells in mouse EAE model
FIG. 5 is a graph showing the effect of lauric acid diet (250 μM and 500 μM) initiated at the time of disease induction (DI) compared to a control group on levels of CD4+CD25+ Foxp3 cells in mouse EAE model,
as §1
For the induction of EAE the mice were anesthetized and administered two subcutaneous injections of a 50 μl emulsion applied to the left and right tail basis and comprising a total of 200 μg MOG35-55 (myelin oligodendrocyte glycoprotein) and 200 μg Freund's adjuvant (CFA) with 4 mg/ml of M. tuberculosis. Pertussis toxin ([…]) was given intraperitoneally on day 0 and day 2 after the induction. The clinical assessment took place on a daily basis using a 5-point scale (SEM).

A further test deals with TGFβ1. Kind of test: Gene expression profiling of signature cytokines in EAE mice. The class given is in vivo, mouse. As to conditions: propionic acid-fed mice with EAE. From the text: (§3) In mice treated with propionic acid, the number of regulatory T cells increases with the changes that occur in the microbiota (CD4+CD25+ Foxp3+ Treg).
Another test has as its system Foxp3. The test is described as above. In kind it is in vivo, mouse. As to conditions: propionic acid-fed mice with EAE.
Text: as §3

The subject of another test is IL-10. Described as above. As to conditions: propionic acid-fed mice with EAE. In kind it is in vivo, mouse.
Text: as §3

The next test deals with intestinal microbiome. Kind of test: Influence on composition of the intestinal microbiome. As to conditions: present in mice. The class given is in vivo. The source says:
The inventive acids, in particular propionic acid and butyric acid have an influence on the intestinal physiology and the microbiome present there. In this way, they have an impact on the composition of the microbiome.

Another test concerns TH1 and TH17 cells. The test can be described thus: Th1/Th17 cells in small bowel and central nervous system in EAE mice. The class given is in vivo. As to conditions: mouse EAE, lauric acid enriched diet. From the text: Moreover, the aliphatic chain length of the carboxylic acids also affects the […] autoimmunity as well as the regulatory response of Treg in an in vivo mouse model. […] In this context, MS and psoriasis are to be regarded as largely similar.

Take glatiramer acetate: the “increase in number of Treg cells by a factor” value (from here on “increase in number”) with Treg cells is 1.1.

Turning to `CCC(=O)O` [propionic acid], in [1] (MS mouse model (EAE), propionic acid given prophylactically), the “course of induced disease versus control group” value is given as “significant improvement”. The “disease progression (SEM) versus control group” value in test [1] (mouse EAE, propionic acid given orally on the day of onset of disease (OD), FIG. 2) was “significantly less favorable disease progression than the control group”. In test [2], the “relative axonal density, demyelination of the white matter and number of CD3+ cells versus control group” value is “significant improvement”. The “CD4+CD25+ Foxp3 cells versus control group” value with CD4+CD25+ Foxp3+ Treg (propionic acid administration (DI), FIG. 4) is given as “increases; also recorded: significant increase”. In the test on TGFβ1, the TGFβ1 gene expression entry was “increased values; also recorded: significant increase”. In addition, in the test with Foxp3, the Foxp3 gene expression result was “increased values; also recorded: significant increase”. Moreover, in the test with IL-10, the IL-10 gene expression entry is “increased values; also recorded: significant increase”.

With `C/C(O)=C(\C#N)C(=O)Nc1ccc(C(F)(F)F)cc1` [teriflunomide], the “increase in number” value with Treg cells is 1.1.

As to `CCCCCCCCc1ccc(CCC(N)(CO)CO)cc1` [fingolimod], the “increase in number” value in the test with Treg cells is on record as 1.1.

With `CCCCCCCCCCCC(=O)O` [lauric acid], the “CD4+CD25+ Foxp3 cells versus control value” with CD4+CD25+ Foxp3+ Treg (lauric acid enriched diet (250 μM and 500 μM), concentration dependent, FIG. 5) is given as “reduction”. Besides, in the test with intestinal microbiome, the “number of Provotellaceae and some families of Phylum Bacteroidetes” value was “reduce significantly”. Besides, in the test on TH1 and TH17 cells, the “TH1 and TH17 cells in the small bowel” value is on record as “significant reduction”; the “Th1/Th17 in the central nervous system” value is on record as “accumulation”.
